# According to patent US7399869B2, “Fibroblast activation protein inhibitor compounds and methods” (Genentech, Inc., priority 2005, dated 2008):
# Key:
# Format in all cases: biochemical
# DPP-8 = target: T1, DPP-8 (Homo sapiens, UniProt Q6V1X1); assay: Inhibition of DPP-8 by Ac-Gly-boroPro 5
# T1 construct: 2-883 of DPP-8; FLAG (N); made in house; host or cells: 293 cells; template plasmid from Origene
# Procedure: (§1) To establish whether Ac-Gly-BoroPro 5 inhibits these prolyl peptidases, each protease was cloned, expressed and assayed to determine Km and Ki values and monitor their activity.
# (§2) Briefly, proteases were added to a reaction mixture containing inhibitor and substrate (Ac-Ala-AMC for APH, Z-Gly-Pro-AMC for POP, and Ala-Pro-AFC for all others) in assay buffer at 23° C. Protease activity was followed continuously as described above to monitor time-dependent inhibition. Data were plotted as V0/Vi−1 versus [I], where V0 is the rate if substrate hydrolysis in the absence of inhibitor, Vi is the steady state rate of substrate hydrolysis in the presence of inhibitor and [I] is the concentration of Ac-Gly-BoroPro.
# (§3) KI values for inhibition of proteases by 5 were determined using the method of progress curves. Briefly, proteases (10-100 nM) were added to a reaction mixture containing inhibitor 5 (0-10 μM) and substrate AP-AFC in assay buffer at 23° C. […] Ki, the true equilibrium inhibition constant was determined according to the following relationship: Ki=Kobs/(1+[S]/Km), where [S] is the concentration of substrate used in the assay and Km is the Michaelis constant for substrate cleavage. […]
# DPP-9 = target: T2, DPP-9 (Homo sapiens, UniProt Q86TI2); assay: Inhibition of DPP-9 by Ac-Gly-boroPro 5
# T2 construct: 2-864 of DPP-9; FLAG (N); made in house; host or cells: 293 cells; template plasmid from Origene
# Procedure: as §1, §2, §3
# APH = target: T3, APH (Homo sapiens, UniProt P13798); assay: Inhibition of APH by Ac-Gly-boroPro 5; conditions: substrate Ac-Ala-AMC, 23° C., progress curves
# T3 construct: 2-732 of APH; FLAG (N); made in house; host or cells: 293 cells; template plasmid from Origene
# T3 sequence (P13798 2-732): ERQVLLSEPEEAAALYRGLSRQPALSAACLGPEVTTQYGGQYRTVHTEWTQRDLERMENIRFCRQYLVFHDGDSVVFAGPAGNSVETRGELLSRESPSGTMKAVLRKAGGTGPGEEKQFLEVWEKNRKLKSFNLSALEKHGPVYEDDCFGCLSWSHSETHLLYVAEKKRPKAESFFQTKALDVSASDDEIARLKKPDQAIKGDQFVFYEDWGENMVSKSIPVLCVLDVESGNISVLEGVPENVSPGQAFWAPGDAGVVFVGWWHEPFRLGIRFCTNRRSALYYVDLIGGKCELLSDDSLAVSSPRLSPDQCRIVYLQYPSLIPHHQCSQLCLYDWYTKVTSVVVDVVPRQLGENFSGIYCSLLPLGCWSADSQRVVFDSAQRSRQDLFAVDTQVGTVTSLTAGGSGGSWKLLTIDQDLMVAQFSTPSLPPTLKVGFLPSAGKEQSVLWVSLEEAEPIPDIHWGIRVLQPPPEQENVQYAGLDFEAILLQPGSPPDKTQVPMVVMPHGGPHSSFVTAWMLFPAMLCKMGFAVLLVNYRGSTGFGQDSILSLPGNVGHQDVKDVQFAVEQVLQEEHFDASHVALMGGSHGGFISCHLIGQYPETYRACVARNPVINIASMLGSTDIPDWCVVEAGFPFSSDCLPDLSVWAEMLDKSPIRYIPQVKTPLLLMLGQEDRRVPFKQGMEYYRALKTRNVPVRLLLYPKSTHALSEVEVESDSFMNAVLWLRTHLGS
# Procedure: as §1, §2, §3
# DPP-7 = target: T4, DPP-7 (Homo sapiens, UniProt Q9UHL4); assay: Inhibition of DPP-7 by Ac-Gly-boroPro 5; conditions: substrate Ala-Pro-AFC, 23° C., progress curves
# T4 construct: These constructs encoded amino acids 26-492 of DPP-7; FLAG (N); made in house; host or cells: 293 cells; template plasmid from Origene
# Procedure: as §1, §2, §3
# [1] = target: T5, full-length (transmembrane) murine FAP (Mus musculus, UniProt P97321); assay: Inhibition of murine FAP in cell lysate
# T5 sequence (P97321 1-761): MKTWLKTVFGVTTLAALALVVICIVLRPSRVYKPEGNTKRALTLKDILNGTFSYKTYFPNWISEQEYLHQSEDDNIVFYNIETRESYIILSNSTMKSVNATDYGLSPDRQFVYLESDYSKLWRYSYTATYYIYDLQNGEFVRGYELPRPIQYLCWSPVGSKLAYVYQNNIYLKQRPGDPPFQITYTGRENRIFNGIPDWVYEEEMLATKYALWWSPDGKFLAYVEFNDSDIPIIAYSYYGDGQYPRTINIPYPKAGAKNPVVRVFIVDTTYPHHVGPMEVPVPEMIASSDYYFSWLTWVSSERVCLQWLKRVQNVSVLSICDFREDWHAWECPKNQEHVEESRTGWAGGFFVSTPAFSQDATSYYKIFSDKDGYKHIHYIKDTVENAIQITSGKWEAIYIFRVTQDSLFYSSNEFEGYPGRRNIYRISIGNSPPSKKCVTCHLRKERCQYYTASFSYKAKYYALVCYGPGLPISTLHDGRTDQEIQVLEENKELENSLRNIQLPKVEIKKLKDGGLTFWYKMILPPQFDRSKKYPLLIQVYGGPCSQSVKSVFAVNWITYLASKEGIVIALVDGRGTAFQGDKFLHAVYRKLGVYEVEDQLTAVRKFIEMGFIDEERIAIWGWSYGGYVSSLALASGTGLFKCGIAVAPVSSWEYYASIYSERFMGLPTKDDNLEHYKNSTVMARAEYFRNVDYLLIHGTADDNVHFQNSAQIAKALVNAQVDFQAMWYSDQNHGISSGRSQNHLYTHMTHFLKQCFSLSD
# [2] = substrate Ala-Pro-AFC, 23° C., progress curves
# T2 sequence (Q86TI2 2-863 limits assumed): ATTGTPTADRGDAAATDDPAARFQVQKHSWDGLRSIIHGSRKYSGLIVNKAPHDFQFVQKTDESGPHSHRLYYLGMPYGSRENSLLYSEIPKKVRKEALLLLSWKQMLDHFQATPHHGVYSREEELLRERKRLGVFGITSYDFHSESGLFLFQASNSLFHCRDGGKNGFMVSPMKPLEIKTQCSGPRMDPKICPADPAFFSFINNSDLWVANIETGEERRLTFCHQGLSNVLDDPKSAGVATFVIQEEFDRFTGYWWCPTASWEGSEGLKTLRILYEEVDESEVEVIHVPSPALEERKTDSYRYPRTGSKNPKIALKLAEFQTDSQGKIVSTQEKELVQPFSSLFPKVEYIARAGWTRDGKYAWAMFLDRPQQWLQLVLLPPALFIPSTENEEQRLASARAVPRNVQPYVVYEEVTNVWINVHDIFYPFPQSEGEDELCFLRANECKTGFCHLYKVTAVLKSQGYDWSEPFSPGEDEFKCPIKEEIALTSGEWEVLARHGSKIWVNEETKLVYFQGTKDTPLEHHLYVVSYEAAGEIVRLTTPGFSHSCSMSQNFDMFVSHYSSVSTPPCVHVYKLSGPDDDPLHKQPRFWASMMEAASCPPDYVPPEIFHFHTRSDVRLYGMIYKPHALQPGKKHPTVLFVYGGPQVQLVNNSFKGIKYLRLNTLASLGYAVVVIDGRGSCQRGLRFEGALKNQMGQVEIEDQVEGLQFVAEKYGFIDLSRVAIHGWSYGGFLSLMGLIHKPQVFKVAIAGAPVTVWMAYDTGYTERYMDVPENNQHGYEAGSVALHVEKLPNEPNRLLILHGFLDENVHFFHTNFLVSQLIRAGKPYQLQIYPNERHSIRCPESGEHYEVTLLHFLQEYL
# T1 sequence (Q6V1X1 18-898 limits assumed): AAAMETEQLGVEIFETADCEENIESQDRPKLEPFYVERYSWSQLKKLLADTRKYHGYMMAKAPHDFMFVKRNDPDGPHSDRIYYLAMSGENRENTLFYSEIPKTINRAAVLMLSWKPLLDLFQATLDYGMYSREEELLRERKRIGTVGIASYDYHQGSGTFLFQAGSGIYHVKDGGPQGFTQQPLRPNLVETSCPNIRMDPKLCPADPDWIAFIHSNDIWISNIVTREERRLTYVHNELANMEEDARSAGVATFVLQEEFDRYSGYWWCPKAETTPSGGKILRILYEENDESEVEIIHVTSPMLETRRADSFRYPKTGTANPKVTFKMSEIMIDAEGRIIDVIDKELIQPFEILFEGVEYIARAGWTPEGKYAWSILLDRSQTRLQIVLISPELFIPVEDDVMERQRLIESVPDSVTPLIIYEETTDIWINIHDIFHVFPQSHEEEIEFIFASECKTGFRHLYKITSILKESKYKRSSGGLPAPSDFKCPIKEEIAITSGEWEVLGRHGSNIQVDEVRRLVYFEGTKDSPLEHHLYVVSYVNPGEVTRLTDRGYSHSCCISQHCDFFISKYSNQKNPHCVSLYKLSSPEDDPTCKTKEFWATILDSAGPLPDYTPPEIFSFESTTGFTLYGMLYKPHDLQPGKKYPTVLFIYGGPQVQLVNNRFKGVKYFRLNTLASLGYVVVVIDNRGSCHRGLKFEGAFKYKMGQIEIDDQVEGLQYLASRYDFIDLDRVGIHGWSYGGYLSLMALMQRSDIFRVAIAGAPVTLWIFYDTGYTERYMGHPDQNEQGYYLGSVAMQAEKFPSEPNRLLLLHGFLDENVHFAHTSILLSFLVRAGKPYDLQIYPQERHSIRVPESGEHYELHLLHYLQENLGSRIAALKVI
compound,measurement,setting,value
"CC(=O)NCC(=O)N1CCCC1B(O)O (stereo not shown) [N-Ac-Gly-boroPro 5, N-acetyl-gly-boroproline]",reactivity with DPP-8,DPP-8,poor reactivity
same,Ki,DPP-8; [2],19.1 µM
same,reactivity with DPP-9,DPP-9,poor reactivity
same,Ki,DPP-9; [2],8.8 µM
same,Ki,APH,0.575 µM
same,Ki,DPP-7,125 µM
same,inhibits full-length (transmembrane) murine FAP at,[1],117 nM
